From BigSolDB 2.1

CC(C)[C@H](N)C(=O)O
solubility (mole fraction)
Conditions | 283.15 K | 288.15 K | 293.15 K | 298.15 K | 303.15 K | 308.15 K | 313.15 K | 318.15 K | 323.15 K | 328.15 K
in 1,4-dioxane | – | 6.7e-05 | 8.7e-05 | 0.000121 | 0.000169 | 0.000223 | 0.000281 | 0.000346 | 0.00041 | 0.000486
in acetone | 3.1e-05 | 4.1e-05 | 5.6e-05 | 7.5e-05 | 0.0001 | 0.000132 | 0.000171 | 0.000216 | 0.000256 | –
in acetonitrile | 2.4e-05 | 3.3e-05 | 4.3e-05 | 5.6e-05 | 6.8e-05 | 8.2e-05 | 9.9e-05 | 0.000116 | 0.000136 | –
in ethanol | 0.000254 | 0.00026 | 0.000272 | 0.000286 | 0.000303 | 0.00032 | 0.000338 | 0.000357 | 0.00038 | –
in ethyl acetate | 3.1e-05 | 3.7e-05 | 4.6e-05 | 5.7e-05 | 7.1e-05 | 8.4e-05 | 0.0001 | 0.000119 | 0.000136 | –
in isobutanol | 5e-05 | 6.1e-05 | 7.8e-05 | 9.9e-05 | 0.000123 | 0.000151 | 0.000185 | 0.000218 | 0.000258 | –
in isopropanol | 1.6e-05 | 1.8e-05 | 2.5e-05 | 3.2e-05 | 4.2e-05 | 5.6e-05 | 7e-05 | 9e-05 | 0.00011 | –
in methanol | 0.000585 | 0.000601 | 0.000624 | 0.000652 | 0.000684 | 0.000717 | 0.000754 | 0.000792 | 0.000834 | –
in methyl acetate | 3e-05 | 3.2e-05 | 3.4e-05 | 3.6e-05 | 4.2e-05 | 5.1e-05 | 6.7e-05 | 8.8e-05 | 0.000115 | –
in n-butanol | 2.4e-05 | 3.1e-05 | 4.7e-05 | 6.9e-05 | 9.1e-05 | 0.000115 | 0.000139 | 0.00017 | 0.000203 | –
in n-propanol | 1.5e-05 | 1.9e-05 | 2.3e-05 | 3e-05 | 3.7e-05 | 4.6e-05 | 5.5e-05 | 6.4e-05 | 7.7e-05 | –
in water | 0.00915 | 0.00921 | 0.00937 | 0.00954 | 0.00976 | 0.00998 | 0.0102 | 0.0105 | 0.0108 | –
